Data from article PMC4532424, “The Novel Cyclophilin Inhibitor CPI-431-32 Concurrently Blocks HCV and HIV-1 Infections via a Similar Mechanism of Action” (PLoS ONE, 2015).
Non-standard residues stand in square brackets, D forms with d. Residues, ends and D or L forms follow the SMILES beside them. NMeThr(4R-Me,4-(CH2)6NHAc) = CN[C@H](C(=O)O)[C@H](O)[C@H](C)CCCCCCNC(C)=O; NMeL = CN[C@@H](CC(C)C)C(=O)O; NMeV = CN[C@H](C(=O)O)C(C)C; dNMeA = CN[C@H](C)C(=O)O; Abu = CC[C@H](N)C(=O)O

Key:
HCV JFH-1 = test: HIV-1/HCV co-culture co-infection, HCV core ELISA; format: cell-based
Protocol: CD4+ T-lymphocytes and Huh7.5.1 cells uninfected or infected for 3 h as described above were mixed in a single flask and HIV-1 and HCV replication monitored over a period of 3 weeks as described above.
HIV-1 target cells—CD4+ T-lymphocytes—and HCV target cells—hepatoma cells—were placed in a single chamber (flask), exposed to both HIV-1 and HCV, and viral replication monitored over time by p24 capsid and core ELISAs, respectively.
(§1) CD4+ T-lymphocytes (A) and Huh7.5.1 cells (B) (0.5 x 10^6 cells) (triplicates) were exposed to HIV-1 JR-CSF and HCV JFH-1. Drugs (2 μM) were added 3 h pre-viral exposure (top panels) or 3 days post-viral exposure (bottom panels). Viral replications were monitored by HIV-1 p24 and HCV core ELISAs. C. CD4+ T-lymphocytes (0.5 x 10^6 cells) (triplicates) were exposed to HIV-1 JR-CSF. Drugs were initially added 3 days post-viral exposure (2 μM) and then daily (0.5 μM). Viral replications were monitored by HIV-1 p24 and HCV core ELISAs. […] D. Model for the HIV-1/HCV co-culture system.

HIV-1 JR-CSF [1] = test: HIV-1 mono-infection of CD4+ T-lymphocytes, p24 ELISA; format: cell-based; details: Fig 1A
Source text: Hemoglobin determinations at every donation protect the donor from phlebotomy-induced anemia. The donor pool also provides investigators with a mix of gender and minority subjects, and recruitment is ongoing for underrepresented minorities. At the present time, the NBDS has 320 active normal blood donors enrolled. Use of the Normal Blood Donor Service is considered “human subjects” research and each investigator who wants to use the service must submit a protocol to the IRB for review and approval. Dr. Gallay has current IRB approval for the human blood obtained for research described in this manuscript. Protocol No: IRB-15-6552. Full name of the IRB is "Scripps IRB". […] Consent from blood donors was obtained verbally. The authors have no access to identifying donor information for these samples.

Human recombinant CypA = molecular target: T1, Human recombinant CypA (Homo sapiens, UniProt P62937); test: α-chymotrypsin-coupled CypA isomerase inhibition assay; format: biochemical; details: one representative experiment, mean ± SD; 10 nM CypA, 5°C
T1 construct: purchased Atgen
T1 sequence (P62937 whole entry): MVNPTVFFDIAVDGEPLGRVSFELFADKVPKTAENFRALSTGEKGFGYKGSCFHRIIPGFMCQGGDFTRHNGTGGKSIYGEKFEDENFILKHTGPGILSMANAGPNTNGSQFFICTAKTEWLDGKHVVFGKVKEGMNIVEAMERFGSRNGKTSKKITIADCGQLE
Protocol: Succinyl-AAPF-pNA peptide substrate (Sigma) was dissolved to 3.2 mM in dried LiCl/trifluoroethanol. […] All solutions were equilibrated, and reactions conducted at 5°C. Reactions were initiated by mixing 95 μL reaction mix with 5 μL peptide preloaded in multiple wells of 96-well plates and measuring OD405 nm in each well at 6-sec intervals for 6 min using a BMG Polarstar Galaxy plate reader. Data were fitted with Graphpad Prism 6.0 to obtain first-order rate constants.

human T cells = details: cited from earlier work
HIV-1 JR-CSF [2] = test: Established HIV-1 infection of CD4+ T-lymphocytes, single versus daily drug addition, p24 ELISA; format: cell-based; details: 2 μM three days post-infection then daily 0.5 μM; after fifteen days
Protocol: as §1

[3] = test system: HCV-mediated double-membrane vesicle (DMV) formation; test: HCV NS3-NS5B-mediated double membrane vesicle (DMV) formation in T7/Huh7.5.1 cells, EM; format: cell-based, human; details: for DMV number: T7/Huh7.5.1 cells, pTMI (NS3-NS5B), DMSO control 365 +/- 18
Protocol: HCV-mediated DMV formation studies were conducted as we described recently using the pTM1(NS3-NS5B) plasmid and the T7/Huh7.5.1 cells developed by the Tai lab.
We then investigated the mechanism by which CPI-431-32 inhibits HCV replication. HCV is well known for its ability to reshape intracellular membranes to optimize RNA synthesis, especially by re-organizing the ER membrane close to the nucleus—the so-called membranous web (MW). […] We and others recently obtained evidence that the formation of DMVs highly depends on both CypA and HCV NS5A [60, 71, 72]. We thus asked whether CPI-431-32 inhibits HCV replication by preventing the creation of DMVs. To test this hypothesis, we took advantage of a T7 promoter driven JFH-1 NS3-NS5B DNA plasmid (pTM1(NS3-5B)) developed by the Tai lab that permits expression of NS3, NS4A, NS4B, NS5A and NS5B upon HCV polyprotein processing as well as viral RNA synthesis when transfected in T7 RNA polymerase expressing Huh7.5.1 cells (T7/Huh7.5.1 cells). Importantly, the expression of the HCV NS3-NS5B polyprotein suffices to create both the MV and DMVs independently of viral replication. All controls were presented previously. As we and others recently reported, NS3-5B expression mediates the formation of a significant number of DMVs in DMSO-treated cells (Fig 5).
Fig 5 CPI-431-32 blocks HCV-mediated double-membrane vesicle (DMV) formation. T7 polymerase expressing Huh7.5.1 cells were transfected in triplicates with JFH-1 NS3-NS5B plasmid in the presence of DMSO or increasing concentrations of CPI-431-32 and analyzed by EM as well as by Image J and ITEM software for DMVs quantification as described previously. Illustrating EM images of DMVs are presented with an amplification of 25,000x. Data are representative of two independent experiments. TEXT PRINTED IN THE PICTURE: DMSO: DMV number: 0 (Cells: T7/Huh7.5.1; HCV Plasmids: –); DMV number: 365 +/- 18 (Cells: T7/Huh7.5.1; HCV Plasmids: pTMI (NS3-NS5B)) | CPI-431-32: DMV number: 1 +/- 0 (2 μM; Cells: T7/Huh7.5.1; HCV Plasmids: pTMI (NS3-NS5B)); DMV number: 8 +/- 2 (0.5 μM; Cells: T7/Huh7.5.1; HCV Plasmids: pTMI (NS3-NS5B)); DMV number: 61 +/- 6 (0.125 μM; Cells: T7/Huh7.5.1; HCV Plasmids: pTMI (NS3-NS5B)); DMV number: 312 +/- 45 (0.03125 μM; Cells: T7/Huh7.5.1; HCV Plasmids: pTMI (NS3-NS5B))

[4] = drug treatments begun 3 h before virus addition
[5] = single dose added 3 days post-infection

Structure (SMILES)	Effect on HCV replication (in words) (HCV JFH-1; [4])	Effect on HCV replication (in words) (HCV JFH-1; [5])	Effect on HIV-1 replication (in words) (HIV-1 JR-CSF [1])	IC50 (Human recombinant CypA)	Cellular toxicity (in words) (human T cells)	Effect on HIV-1 replication (in words) (HIV-1 JR-CSF [2])	DMV number ([3]; 0.03125 μM)	DMV number ([3]; 0.125 μM)	DMV number ([3]; 0.5 μM)	DMV number ([3]; 2 μM)	NS3-NS5B-mediated formation of DMVs (in words) ([3]; compared to DMSO control)
C/C=C/C[C@@H](C)[C@@H](O)[C@H]1C(=O)N[C@@H](CC)C(=O)N(C)[C@H](C)C(=O)N(CC)[C@@H](C(C)C)C(=O)N[C@@H](C(C)C)C(=O)N(C)[C@@H](CC(C)C)C(=O)N[C@@H](C)C(=O)N[C@H](C)C(=O)N(C)[C@@H](CC(C)C)C(=O)N(C)[C@@H](CC(C)C)C(=O)N(C)[C@@H](C(C)C)C(=O)N1C [ALV, Alisporivir]	completely prevented	immediately and gradually caused a decline in HCV levels	efficiently blocked viral growth	2.8 ± 0.4 nM	lack of cellular toxicity	–	–	–	–	–	–
CC[C@@H]1NC(=O)[C@H]([C@H](O)[C@H](C)CCCCCCNC(C)=O)N(C)C(=O)[C@H](C(C)C)N(C)C(=O)[C@H](CC(C)C)N(C)C(=O)[C@H](CC(C)C)N(C)C(=O)[C@@H](C)NC(=O)[C@H](C)NC(=O)[C@H](CC(C)C)N(C)C(=O)[C@H](C(C)C)NC(=O)[C@H](CC(C)C)N(C)C(=O)[C@@H](C)N(C)C1=O [CPI-431-32] (cyclo(A[dA][NMeL][NMeL][NMeV][NMeThr(4R-Me,4-(CH2)6NHAc)][Abu][dNMeA][NMeL]V[NMeL]))	completely prevented	immediately and gradually caused a decline in HCV levels	efficiently blocked viral growth	1.8 ± 0.6 nM	–	almost totally repressed HIV-1 replication	312 +/- 45	61 +/- 6	8 +/- 2	1 +/- 0	profoundly decreased
